Source: patent US8921417B2, “Method of treating dyslipidemia using naturally occurring diterpene” (Council of Scientific & Industrial Research, priority 2008, dated 2014)
Marks after values point to notes of the source that are not given here.

Test system: high fat diet (HFD)-fed dyslipidemic hamsters
Assay: Antidyslipidemic activity in high fat diet (HFD)-fed dyslipidemic hamster model
Assay type: in vivo, golden Syrian hamsters
Conditions: for GLY, percent change with respect to HFD-fed hamster group / HDL/TC, percent change with respect to HFD-fed hamster group / TC, percent change with respect to HFD-fed hamster group / TG, percent change with respect to HFD-fed hamster group / LDL, percent change with respect to HFD-fed hamster group: plasma; for antidyslipidemic activity (in words): different doses (5, 10, 25, 50, 100 mg/kg) of body weight
From the text: Male golden Syrian hamsters weighing 110-120 g were divided into hyperlipidemic and hyperlipidemic plus drug-treated groups. Each group consisted of eight animals. Hyperlipidemia was produced by feeding with a high fat diet (HFD). Hyperlipidemic hamsters had free access to the HFD and water ad lib during the entire period of the experiment. The test samples were given orally at the dose mentioned using water as a drug vehicle from day 4 to day 10 (7 days) in the HFD fed hamsters.
Normal hamsters fed with the HFD and given the drug vehicle (water) only served as control animals. Body weight and diet intake of each animal group was recorded daily to check the effect of the drug on food intake and body weight of the animals. At the end of the experiment, i.e., on the 10th day, the blood of the non-fasted animals was withdrawn in EDTA coated tubes and the tubes were cooled to 4° C. for 15 min. The cold plasma was separated and biological analysis of the plasma was performed on the same day using commercially available enzymatic diagnostic kits for triglycerides (TG), total cholesterol (TC), high density lipoprotein (HDL), glycerol (GLY) and low density lipoprotein (LDL) using a Synchron CX-5 Clinical System, Beckmann Coulter Instrument. The data was analyzed for its significance on Prism Software.

[1] = dose 25 mg/kg body weight, oral, 7 days
[2] = dose 50 mg/kg body weight, oral, 7 days
[3] = dose 100 mg/kg body weight, oral, 7 days

CC(C)c1c(C(=O)Nc2ccccc2)c(-c2ccccc2)c(-c2ccc(F)cc2)n1CC[C@@H](O)C[C@@H](O)CC(=O)O [Atorvastatin, reference compound]
increase of HDL/TC (dose 10 mg/kg): 35% | lowering of Gly (dose 10 mg/kg): 52% | lowering of TC (dose 10 mg/kg): 14% | lowering of TG (dose 10 mg/kg): 63% | GLY, percent change with respect to HFD-fed hamster group (dose 10 mg/kg p.o., 7 days): −52* % | HDL/TC, percent change with respect to HFD-fed hamster group (dose 10 mg/kg p.o., 7 days): +35% | TC, percent change with respect to HFD-fed hamster group (dose 10 mg/kg p.o., 7 days): −14% | TG, percent change with respect to HFD-fed hamster group (dose 10 mg/kg p.o., 7 days): −63*** %

CC1=CCC[C@@H]2[C@@](C)(CCC3=CC(=O)O[C@@H]3O)[C@H](C)CC[C@@]12C [Compound 1, 16α-hydroxycleroda-3,13(14)Z-dien-15,16-olide]
antidyslipidemic activity (in words) (listed as compound having formula (1)): significant antidyslipidemic activity | antidyslipidemic activity (in words) (listed as pure isolated compound from the hexane extract): significantly decreased serum TG, total cholesterol (TC), and glycerol (Gly), accompanied by increase in HDL-C/TC ratio | GLY, percent change with respect to HFD-fed hamster group (dose 5 mg/kg p.o., 7 days): −10% | HDL/TC, percent change with respect to HFD-fed hamster group (dose 5 mg/kg p.o., 7 days): +12% | TC, percent change with respect to HFD-fed hamster group (dose 5 mg/kg p.o., 7 days): −27* % | TG, percent change with respect to HFD-fed hamster group (dose 5 mg/kg p.o., 7 days): −19% | GLY, percent change with respect to HFD-fed hamster group (dose 10 mg/kg p.o., 7 days): −5% | HDL/TC, percent change with respect to HFD-fed hamster group (dose 10 mg/kg p.o., 7 days): +12% | TC, percent change with respect to HFD-fed hamster group (dose 10 mg/kg p.o., 7 days): −23* % | TG, percent change with respect to HFD-fed hamster group (dose 10 mg/kg p.o., 7 days): −26*** % | increase of HDL/TC [1]: 36% | lowering of Low density lipoproteins (LDL) [1]: 49% | lowering of glycerol (Gly) [1]: 51% | lowering of total cholesterol (TC) [1]: 46% | lowering of serum TG (dose 25 mg/kg body weight, oral, 7 days, listed as compound of formula (1), 25 mg/kg): 51% | lowering of serum TG (dose 25 mg/kg body weight, oral, 7 days, listed as the compound, 25 mg/kg): up to 51% | GLY, percent change with respect to HFD-fed hamster group (dose 25 mg/kg p.o., 7 days): −51*** % | HDL/TC, percent change with respect to HFD-fed hamster group (dose 25 mg/kg p.o., 7 days): +36% | LDL, percent change with respect to HFD-fed hamster group (dose 25 mg/kg p.o., 7 days): −49* % | TC, percent change with respect to HFD-fed hamster group (dose 25 mg/kg p.o., 7 days): −46** % | TG, percent change with respect to HFD-fed hamster group (dose 25 mg/kg p.o., 7 days): −51*** % | increase of HDL/TC [2]: 54% | lowering of Low density lipoproteins (LDL) [2]: 41% | lowering of glycerol (Gly) [2]: 48% | lowering of serum TG [2]: 46% | lowering of total cholesterol (TC) [2]: 55% | GLY, percent change with respect to HFD-fed hamster group (dose 50 mg/kg p.o., 7 days): −48** % | HDL/TC, percent change with respect to HFD-fed hamster group (dose 50 mg/kg p.o., 7 days): +54% | LDL, percent change with respect to HFD-fed hamster group (dose 50 mg/kg p.o., 7 days): −41* % | TC, percent change with respect to HFD-fed hamster group (dose 50 mg/kg p.o., 7 days): −55*** % | TG, percent change with respect to HFD-fed hamster group (dose 50 mg/kg p.o., 7 days): −46** % | increase of HDL/TC [3]: 46% | lowering of Low density lipoproteins (LDL) [3]: 65% | lowering of glycerol (Gly) [3]: 43% | lowering of serum TG [3]: 43% | lowering of total cholesterol (TC) [3]: 54% | GLY, percent change with respect to HFD-fed hamster group (dose 100 mg/kg p.o., 7 days): −43*** % | HDL/TC, percent change with respect to HFD-fed hamster group (dose 100 mg/kg p.o., 7 days): +46% | LDL, percent change with respect to HFD-fed hamster group (dose 100 mg/kg p.o., 7 days): −65*** % | TC, percent change with respect to HFD-fed hamster group (dose 100 mg/kg p.o., 7 days): −54*** % | TG, percent change with respect to HFD-fed hamster group (dose 100 mg/kg p.o., 7 days): −43** % | increase of HDL/TC ratio (over the dose range 5 to 100 mg/kg body weight): up to 54% | reduction of total cholesterol (TC) (over the dose range 5 to 100 mg/kg, listed as compound of formula (1)): up to 55%

CC[C@H](C)C(=O)O[C@H]1C[C@@H](C)C=C2C=C[C@H](C)[C@H](CC[C@@H]3C[C@@H](O)CC(=O)O3)[C@H]21 [Lovastatin, reference compound]
increase of HDL/TC [1]: 12% | lowering of glycerol (Gly) [1]: 35% | lowering of serum TG [1]: 29% | lowering of total cholesterol (TC) [1]: 9% | GLY, percent change with respect to HFD-fed hamster group (dose 25 mg/kg p.o., 7 days): −35% | HDL/TC, percent change with respect to HFD-fed hamster group (dose 25 mg/kg p.o., 7 days): +12% | TC, percent change with respect to HFD-fed hamster group (dose 25 mg/kg p.o., 7 days): −9% | TG, percent change with respect to HFD-fed hamster group (dose 25 mg/kg p.o., 7 days): −29%

CC(C)OC(=O)C(C)(C)Oc1ccc(C(=O)c2ccc(Cl)cc2)cc1 [fenofibrate, reference compound]
increase of HDL-C/TC (dose 108 mg/kg body weight): 10% | lowering of Gly (dose 108 mg/kg body weight): 36% | lowering of TC (dose 108 mg/kg body weight): 18% | lowering of TG (dose 108 mg/kg body weight): 42%
